{"source": "patent US20070166367A1", "about": "“Adept or gdept producing acetaldehyde” (priority 2004, published 2007)", "key": {"[1]": {"conditions": "ethanol fed animals, cited from earlier work"}, "[2]": {"test_system": "Human Fibroblasts", "conditions": "5 hr exposure, cited from earlier work"}, "[3]": {"conditions": "in vivo; cited from earlier work"}, "[4]": {"experiment": "in vitro acetaldehyde toxicity assay", "assay_type": "cell-based", "conditions": "human, Jurkat cells; higher concentrations (500 uM and 1 mM), day 3, FIG. 1; read-out: viable cell numbers as % of starting number", "description": "(§1) Standard tissue culture techniques were used to maintain Hela, Daudi, Jurkat, CMT-64 cells in flasks in DMEM+10% FCS in a 37° C. incubator.\n(§2) Cell lines subcloned into 25-cm^2 flasks and incubated in media containing dilutions of acetaldehyde, cisplatin or both. Flasks remained sealed during incubation and the media and acetaldehyde/cisplatin were replaced daily. Viable cell counts were made using Trypan blue exclusion and a standard haemocytometer."}, "[5]": {"test_system": "Jurkat", "experiment": "in vitro acetaldehyde toxicity assay", "assay_type": "cell-based", "description": "as §1, §2"}, "[6]": {"conditions": "cited from earlier work"}, "[7]": {"test_system": "DNA", "conditions": "cited from earlier work"}, "[8]": {"test_system": "Human Lymphocytes", "conditions": "cited from earlier work"}, "[9]": {"target": "T1, aldehyde dehydrogenase 1 (ALDH1) (Homo sapiens, UniProt P00352)", "T1 sequence (P00352 1-501)": "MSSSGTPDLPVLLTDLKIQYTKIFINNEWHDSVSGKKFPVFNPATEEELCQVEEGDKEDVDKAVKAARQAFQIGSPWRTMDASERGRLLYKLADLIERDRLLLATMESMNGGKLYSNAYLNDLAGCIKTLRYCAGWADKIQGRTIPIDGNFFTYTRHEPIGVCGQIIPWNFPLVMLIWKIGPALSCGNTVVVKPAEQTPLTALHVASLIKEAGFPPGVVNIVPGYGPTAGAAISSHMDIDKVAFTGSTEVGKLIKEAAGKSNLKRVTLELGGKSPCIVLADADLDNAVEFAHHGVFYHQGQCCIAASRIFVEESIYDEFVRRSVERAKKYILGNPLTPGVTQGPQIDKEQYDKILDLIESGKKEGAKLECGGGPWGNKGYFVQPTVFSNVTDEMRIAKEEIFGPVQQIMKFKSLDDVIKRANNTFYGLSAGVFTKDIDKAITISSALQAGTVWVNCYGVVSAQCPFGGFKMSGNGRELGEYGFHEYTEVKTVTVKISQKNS", "conditions": "cited from earlier work"}, "[10]": {"conditions": "tissue culture at 37° C., cited from earlier work"}, "[11]": {"test_system": "Daudi lymphoma cells", "experiment": "chronic exposure of Daudi lymphoma cells to acetaldehyde in tissue culture", "assay_type": "cell-based", "description": "The effect of acetaldehyde on Daudi lymphoma cells was investigated. Chronic exposure to acetaldehyde of Daudi lymphoma cells in tissue culture was investigated with the media and acetaldehyde replaced every 24 hours, with the lids either tight closed or slightly open (the norm for tissue culture).\nB. Repeat method as above changing media and replacing acetaldehyde every 24 hours.\nResults are shown as the number of cells×10^4 remaining viable at each time point. (Days 0-6)"}, "[12]": {"target": "T2, Acetaldehyde dehydrogenase 2 (ALDH2) (Homo sapiens, UniProt P05091)", "T2 sequence (P05091 18-517)": "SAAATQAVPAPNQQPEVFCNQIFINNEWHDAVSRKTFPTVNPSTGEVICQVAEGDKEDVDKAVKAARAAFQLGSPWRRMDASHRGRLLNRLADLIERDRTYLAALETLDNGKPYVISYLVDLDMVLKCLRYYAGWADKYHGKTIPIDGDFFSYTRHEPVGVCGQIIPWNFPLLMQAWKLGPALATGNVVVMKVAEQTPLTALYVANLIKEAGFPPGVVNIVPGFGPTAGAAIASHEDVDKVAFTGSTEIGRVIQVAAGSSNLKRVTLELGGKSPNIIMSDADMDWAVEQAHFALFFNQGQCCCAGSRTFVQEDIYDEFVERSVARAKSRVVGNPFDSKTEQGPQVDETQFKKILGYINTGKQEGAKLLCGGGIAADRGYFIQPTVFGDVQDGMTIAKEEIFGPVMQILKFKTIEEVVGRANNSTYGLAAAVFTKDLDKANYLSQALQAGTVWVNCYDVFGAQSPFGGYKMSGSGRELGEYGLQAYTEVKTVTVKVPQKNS", "conditions": "cited from earlier work"}, "[13]": {"experiment": "acetaldehyde in breath and blood after ethanol consumption", "assay_type": "in vivo", "conditions": "suggested from breath values and partition coefficient"}, "[14]": {"conditions": "ethanol IP 3 g/kg, +30 minutes, cited from earlier work"}}, "note": "Like-named read-outs stand apart in the source and are kept apart here.", "data": [{"smiles": "CC=O", "note": "[acetaldehyde]", "values": [{"measurement": "cellular conc", "setting": "[1]; colon", "result": "about 250 μM"}, {"measurement": "Acetaldehyde levels in colonic contents", "setting": "[1]", "result": "exceed 3 mM"}, {"measurement": "% survival", "setting": "[2]; 1 mM", "result": 75, "unit": "%"}, {"measurement": "% survival", "setting": "[2]; 2 mM", "result": 55, "unit": "%"}, {"measurement": "level described for systemic acetaldehyde toxicity", "setting": "[3]", "result": "40 to 60", "unit": "µM"}, {"measurement": "viability at 3 days", "setting": "[4]", "result": 7, "unit": "%"}, {"measurement": "effect on proliferation", "setting": "[5]; 250 uM acetaldehyde", "result": "reduction in the rate of proliferation"}, {"measurement": "viable cells", "setting": "[5]; day 4, FIG. 1", "result": "no Jurkat cells viable"}, {"measurement": "concentrations of acetaldehyde in the breath", "setting": "[6]; after ethanol consumption, different patient groups", "result": "0.005 to 1.3", "unit": "µM"}, {"measurement": "systemic concentrations of acetaldehyde", "setting": "[6]; volunteers consuming alcohol with an hepatic ALDH inhibitor", "result": "up to 240 uM"}, {"measurement": "concentration that is toxic and produces irreparable DNA damage", "setting": "[7]", "result": 1.56, "unit": "mM"}, {"measurement": "Number of metaphases (cell divisions) counted", "setting": "[8]; 90 μM", "result": 200}, {"measurement": "Number of metaphases (cell divisions) counted", "setting": "[8]; 180 μM", "result": 200}, {"measurement": "Number of metaphases (cell divisions) counted", "setting": "[8]; 360 μM", "result": 200}, {"measurement": "Number of metaphases (cell divisions) counted", "setting": "[8]; 720 μM", "result": 130}, {"measurement": "Number of metaphases (cell divisions) counted", "setting": "[8]; 1080 μM", "result": 23}, {"measurement": "Number of metaphases (cell divisions) counted", "setting": "[8]; 1440 μM", "result": "0 and no growth"}, {"measurement": "Km", "setting": "[9]", "result": 22, "unit": "µM"}, {"measurement": "½ life", "setting": "[10]", "result": "about 30 minutes"}, {"measurement": "½ life", "setting": "[10]; listed as Acetaldehyde", "result": 30, "unit": "min"}, {"measurement": "Numbers of viable cells", "setting": "[11]; 100 μM closed, 4S hr", "result": 280000, "unit": "mL⁻¹"}, {"measurement": "Numbers of viable cells", "setting": "[11]; 100 μM closed, 22 hr", "result": 230000, "unit": "mL⁻¹"}, {"measurement": "Numbers of viable cells", "setting": "[11]; 100 μM closed, 68 hr", "result": 370000, "unit": "mL⁻¹"}, {"measurement": "Numbers of viable cells", "setting": "[11]; 100 μM open, 22 hr", "result": 260000, "unit": "mL⁻¹"}, {"measurement": "Numbers of viable cells", "setting": "[11]; 100 μM open, 68 hr", "result": 510000, "unit": "mL⁻¹"}, {"measurement": "cell killing", "setting": "[11]; 100 μM, 6 days exposure", "result": "high levels of cell death"}, {"measurement": "cell killing", "setting": "[11]; 100 μM, by 68 hours", "result": "no cell death but some inhibition of the rate of growth"}, {"measurement": "number of cells remaining viable", "setting": "[11]; 100 μM, day 1", "result": "25 ×10^4"}, {"measurement": "number of cells remaining viable", "setting": "[11]; 100 μM, day 2", "result": "28 ×10^4"}, {"measurement": "number of cells remaining viable", "setting": "[11]; 100 μM, day 3", "result": "32 ×10^4"}, {"measurement": "number of cells remaining viable", "setting": "[11]; 100 μM, day 4", "result": "26 ×10^4"}, {"measurement": "number of cells remaining viable", "setting": "[11]; 100 μM, day 5", "result": "19 ×10^4"}, {"measurement": "number of cells remaining viable", "setting": "[11]; 100 μM, day 6", "result": "2 (two) ×10^4"}, {"measurement": "number of cells remaining viable", "setting": "[11]; 250 μM, day 1", "result": "31 ×10^4"}, {"measurement": "number of cells remaining viable", "setting": "[11]; 250 μM, day 2", "result": "25 ×10^4"}, {"measurement": "number of cells remaining viable", "setting": "[11]; 250 μM, day 3", "result": "14 ×10^4"}, {"measurement": "number of cells remaining viable", "setting": "[11]; 250 μM, day 4", "result": "13 ×10^4"}, {"measurement": "number of cells remaining viable", "setting": "[11]; 250 μM, day 5", "result": "0 ×10^4"}, {"measurement": "cell killing", "setting": "[11]; 500 μM and above, 3-4 days exposure", "result": "high levels of cell death"}, {"measurement": "Numbers of viable cells", "setting": "[11]; 500 μM closed, 4S hr", "result": 180000, "unit": "mL⁻¹"}, {"measurement": "Numbers of viable cells", "setting": "[11]; 500 μM closed, 22 hr", "result": 200000, "unit": "mL⁻¹"}, {"measurement": "Numbers of viable cells", "setting": "[11]; 500 μM closed, 68 hr", "result": 40000, "unit": "mL⁻¹"}, {"measurement": "Numbers of viable cells", "setting": "[11]; 500 μM open, 4S hr", "result": 210000, "unit": "mL⁻¹"}, {"measurement": "Numbers of viable cells", "setting": "[11]; 500 μM open, 22 hr", "result": 220000, "unit": "mL⁻¹"}, {"measurement": "Numbers of viable cells", "setting": "[11]; 500 μM open, 68 hr", "result": 40000, "unit": "mL⁻¹"}, {"measurement": "number of cells remaining viable", "setting": "[11]; 500 μM, day 1", "result": "31 ×10^4"}, {"measurement": "number of cells remaining viable", "setting": "[11]; 500 μM, day 2", "result": "16 ×10^4"}, {"measurement": "number of cells remaining viable", "setting": "[11]; 500 μM, day 3", "result": "11 ×10^4"}, {"measurement": "number of cells remaining viable", "setting": "[11]; 500 μM, day 4", "result": "3 ×10^4"}, {"measurement": "number of cells remaining viable", "setting": "[11]; 500 μM, day 5", "result": "0 ×10^4"}, {"measurement": "cell killing", "setting": "[11]; 500 μM, within 3 days", "result": "nearly all the cells are dead"}, {"measurement": "number of cells remaining viable", "setting": "[11]; 750 μM, day 1", "result": "28 ×10^4"}, {"measurement": "number of cells remaining viable", "setting": "[11]; 750 μM, day 2", "result": "18 ×10^4"}, {"measurement": "number of cells remaining viable", "setting": "[11]; 750 μM, day 3", "result": "5 ×10^4"}, {"measurement": "number of cells remaining viable", "setting": "[11]; 750 μM, day 4", "result": "2 ×10^4"}, {"measurement": "number of cells remaining viable", "setting": "[11]; 750 μM, day 5", "result": "0 ×10^4"}, {"measurement": "Numbers of viable cells", "setting": "[11]; 1000 μM closed, 4S hr", "result": 30000, "unit": "mL⁻¹"}, {"measurement": "Numbers of viable cells", "setting": "[11]; 1000 μM closed, 22 hr", "result": 140000, "unit": "mL⁻¹"}, {"measurement": "Numbers of viable cells", "setting": "[11]; 1000 μM closed, 68 hr", "result": 0, "unit": "mL⁻¹"}, {"measurement": "Numbers of viable cells", "setting": "[11]; 1000 μM open, 4S hr", "result": 80000, "unit": "mL⁻¹"}, {"measurement": "Numbers of viable cells", "setting": "[11]; 1000 μM open, 22 hr", "result": 180000, "unit": "mL⁻¹"}, {"measurement": "Numbers of viable cells", "setting": "[11]; 1000 μM open, 68 hr", "result": 20000, "unit": "mL⁻¹"}, {"measurement": "cell killing", "setting": "[11]; 1000 μM, within 3 days", "result": "kill all the cells"}, {"measurement": "Km", "setting": "[12]", "result": 3.5, "unit": "µM"}, {"measurement": "blood values", "setting": "[13]", "result": "1 to 260", "unit": "µM"}, {"measurement": "acetaldehyde levels", "setting": "[14]; ADH overexpressing heart", "result": 70, "unit": "µM"}, {"measurement": "acetaldehyde levels", "setting": "[14]; control heart", "result": 15, "unit": "µM"}]}]}
